Consider 56 compounds from ChEMBL document CHEMBL1201862, “PubChem BioAssay data set” (2004).

SMILES strings stand for the structures. Structures can show the parent of a compound that is named as a salt.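 Protocol summary: plate cells (96-well), add compound at 5 concentrations, incubate 48 h, interpolate endpoints linearly. GI50 marks 50% less growth.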 Activity calls are given as the source filed them. Cut-off read from the data, not from the text of the source: active = GI50 up to about 1.1 µM and inactive = higher.

Test systems include Hs-578T; XF498; DMS-114; LXFL 529; HOP-18; KM-20L2; M19-MEL; DLD-1.
Experiment in all cases: NCI tumour cell line growth inhibition, 48 h

With `NN(CC(=O)O)CC(=O)O`, the GI50 in the experiment on Hs-578T was > 100 µM (inactive).

With `COc1ccccc1NC(=S)N/N=C1\C(=O)Nc2ccccc21`, the GI50 with Hs-578T was > 100 µM (inactive).

For `NCCN1C(=O)c2ccccc2C1(O)c1ccc(Cl)cc1` (stereo not drawn), the GI50 with Hs-578T was 16.2 µM (inactive).

On to `O=[N+]([O-])c1cc([As](Br)c2ccc(O)c([N+](=O)[O-])c2)ccc1O`, for which the GI50 in the experiment on Hs-578T was 2.41 µM (inactive).

Consider `COc1cccc(N(CN2CC=CC2=O)C(C)=O)c1`, for which the GI50 in the experiment on Hs-578T was > 100 µM (inactive).

In the case of `CCCCc1c2c(nc3c1CCCC3O)/C(=C/c1ccccc1)CCC2` (stereo not drawn), the GI50 in the experiment on XF498 is 13.2 µM (inactive); in the experiment with DMS-114, 22.9 µM (inactive); with LXFL 529 it was 34.1 µM (inactive); in the experiment with HOP-18, 24.4 µM (inactive); with KM-20L2, 35.2 µM (inactive); in the experiment on M19-MEL, 23.1 µM (inactive).

Consider `CC(=O)OCC1OC(n2cnc3nc(Br)[nH]c(=O)c32)C(OC(C)=O)C1OC(C)=O` (stereo not drawn), for which the GI50 with Hs-578T was > 100 µM (inactive).

Take `COP(=O)(OC)C(=O)N1N(c2ccc([N+](=O)[O-])cc2)C(=O)C(C)NC1(NNc1ccc([N+](=O)[O-])cc1)P(=O)(OC)OC` (stereo not drawn): the GI50 in the experiment on XF498 is > 100 µM (inactive); with DMS-114, > 100 µM (inactive); with DLD-1, > 100 µM (inactive); in the experiment with LXFL 529, 57.8 µM (inactive); in the experiment with KM-20L2 it was > 100 µM (inactive); in the experiment with M19-MEL, > 100 µM (inactive).

As for `CNC(=O)CCCN(C)C(=O)CCCCC(=O)N(C)C`, the GI50 in the experiment on Hs-578T is > 56.9 µM (inactive).

Regarding `c1cc2nsnc2c2c[nH]cc12`, the GI50 in the experiment on Hs-578T was 48.1 µM (inactive).

Regarding `CCOC(=O)Cn1c(=O)c2cc(-c3ccccc3)cc3c(Cl)nc4c(OC)c(OC)cc1c4c32`, the GI50 in the experiment with Hs-578T was 6.97 µM (inactive).

As to `COc1cc(S(=O)(=O)Nc2nc(-c3ccc(N4C(=O)C(CC(=O)O)SC4c4cccs4)cc3)cs2)ccc1Cl` (stereo not drawn), in the experiment on Hs-578T, the GI50 was 46 µM (inactive).

With `CCOC(=O)NC(=O)c1cn(CCCCCOC(=O)NCCCCCCNC(=O)OCCCCCn2cc(C(=O)NC(=O)OCC)c(=O)[nH]c2=O)c(=O)[nH]c1=O`, the GI50 in the experiment with DMS-114, in the experiment on DLD-1, in the experiment on LXFL 529, in the experiment on HOP-18, with KM-20L2 and in the experiment with M19-MEL was > 100 µM (inactive) in each case.

`CC(=O)Nc1cc2ccc(=O)oc2cc1Cl`: the GI50 in the experiment with Hs-578T was > 100 µM (inactive).

As for `CC1(C)C2=CCCC(=O)[C@@]2(C)CC[C@@H]1O`, the GI50 with XF498, with DMS-114, in the experiment on DLD-1, with LXFL 529, in the experiment with HOP-18 and in the experiment on KM-20L2 was > 100 µM (inactive) each time. In the experiment with M19-MEL, the GI50 is > 100 µM (inactive).

`O=C1COc2cccnc2N1CCCCO`: the GI50 with Hs-578T is > 100 µM (inactive).

On to `C=C1CC[C@@H](CCC2CCC3(OC2)O[C@]2(O)CC[C@@]3(C)OC2(C)C)C(C)(C)[C@H]1C/C=C1\CCOC1=O` (stereo partly drawn), for which the GI50 with Hs-578T was 20.5 µM (inactive).

On to `Cc1ccc(S(=O)(=O)NNC(=O)c2sc(-c3nc(C)c(C(=O)NNS(=O)(=O)c4ccc(C)cc4)s3)nc2C)cc1`, for which the GI50 in the experiment on DLD-1 is 73.8 µM (inactive); in the experiment with LXFL 529 it was 62.8 µM (inactive); with KM-20L2 it was > 100 µM (inactive); in the experiment with M19-MEL, > 100 µM (inactive).

Turning to `COC(=O)[C@]1(C)C(OC)=CC(=O)C2C1[C@H]1CCC[C@@H]21` (stereo partly drawn), the GI50 in the experiment on XF498, with DMS-114, in the experiment with DLD-1, in the experiment with LXFL 529, in the experiment with HOP-18 and with KM-20L2 was > 100 µM (inactive) in each case. Besides, the GI50 in the experiment on M19-MEL was > 100 µM (inactive).

As for `CCN(CC)CCC(=O)c1ccc(Oc2ccc(F)cc2)cc1`, the GI50 in the experiment on Hs-578T is 24.2 µM (inactive).

Consider `CC(=O)C(=N\Nc1ccc(Cl)cc1)/C(C)=N/c1ccc(C)cc1`, for which, in the experiment on Hs-578T, the GI50 is 44.4 µM (inactive).

In the case of `COc1cc(/C=C2\N=C(c3ccccc3)N(/N=C/c3cc4cc(C)ccc4nc3Cl)C2=O)ccc1O`, the GI50 with Hs-578T is 40.6 µM (inactive).

`CCOC(=O)c1nnsc1NN`: the GI50 in the experiment with Hs-578T is > 100 µM (inactive).

Consider `COc1ccccc1N1C(=O)CSC1c1cccc(Oc2ccccc2)c1` (stereo not drawn), for which the GI50 in the experiment with Hs-578T was 20.9 µM (inactive).

`Cc1cc2c(c(C(N)=O)c1C)-c1cccc(F)c1C2=O`: the GI50 was 57.3 µM (inactive) in the experiment with XF498; > 100 µM (inactive) in the experiment on DMS-114; > 100 µM (inactive) in the experiment on DLD-1; > 100 µM (inactive) in the experiment on LXFL 529; > 100 µM (inactive) in the experiment on KM-20L2; > 100 µM (inactive) in the experiment on M19-MEL.

With `COc1ccccc1/C=C\c1cnnc2ccccc12`, the GI50 in the experiment on Hs-578T was > 10 µM (inactive).

On to `O=C(O)CCCc1nc2c(n1Cc1ccccc1)C(=O)c1ccccc1C2=O`, for which, in the experiment with Hs-578T, the GI50 was 75.7 µM (inactive).

For the compound `CC(=O)O[C@H]1C[C@H]2C(=S)Nc3ccccc3C(=S)N2C1`, the GI50 with Hs-578T is > 100 µM (inactive).

`COC1=CC2(CC(OC)=C1OC)OC21COc2ccccc2C1=O` (stereo not drawn): in the experiment with Hs-578T, the GI50 is > 100 µM (inactive).

In the case of `CCN(CC)CCNc1ccc2ncn3c4ccccc4c(=O)c1c23`, the GI50 in the experiment on DMS-114 was 5.07 µM (inactive); in the experiment with DLD-1, 3.5 µM (inactive); with LXFL 529, 3.77 µM (inactive); in the experiment with HOP-18, 10 µM (inactive); in the experiment on KM-20L2, 3.85 µM (inactive); in the experiment with M19-MEL, 3.63 µM (inactive).

Regarding `Cc1nc(C(N)=S)sc1C(=O)C/C(=N/N)C(=O)Nc1ccc(Cl)cc1`, the GI50 in the experiment with Hs-578T was 39.1 µM (inactive).

On to `CCOC(=O)c1nnc2c(C(=O)OCC)c3ccccc3n2c1N`, for which the GI50 in the experiment on Hs-578T was 7.16 µM (inactive).

As to `C=C1c2[nH]c3ccccc3c2C2C(CC)C1CCN2C` (stereo not drawn), the GI50 in the experiment on Hs-578T is 40.9 µM (inactive).

Turning to `CC(=O)OCC1OC(Sc2nc(-c3ccccc3)c(C#N)c(=O)n2C2OC(COC(C)=O)C(OC(C)=O)C(OC(C)=O)C2OC(C)=O)C(OC(C)=O)C(OC(C)=O)C1OC(C)=O` (stereo not drawn), the GI50 with Hs-578T was > 100 µM (inactive).

Consider `COc1ccc2[nH]c3c([N+](=O)[O-])ccc(Cl)c3c(=O)c2c1`, for which the GI50 in the experiment with Hs-578T is 30.3 µM (inactive).

As for `Cc1cc(-c2nc3cc(F)ccc3s2)ccc1NC(=O)[C@@H](N)CCCCN`, the GI50 with Hs-578T is 3.08 µM (inactive).

Regarding `CCSCCC(N)C(=O)O` (stereo not drawn), the GI50 in the experiment with Hs-578T was > 100 µM (inactive).

For the compound `Brc1ccc2c(c1)C1C(CO2)C(c2ccccc2)=NN1c1ccccc1` (stereo not drawn), the GI50 was > 100 µM (inactive) in the experiment with XF498; > 100 µM (inactive) with DMS-114; > 100 µM (inactive) in the experiment on DLD-1; > 100 µM (inactive) in the experiment on LXFL 529; 60 µM (inactive) with HOP-18; > 100 µM (inactive) with KM-20L2. Moreover, in the experiment with M19-MEL, the GI50 is > 100 µM (inactive).

Consider `O=C1c2c[nH]nc2C(c2ccccc2)N1c1ccccc1` (stereo not drawn), for which the GI50 in the experiment with Hs-578T was > 10 µM (inactive).

Turning to `O=C1CCCC(=O)N1n1c(Cc2ccccc2)n[nH]c1=O`, the GI50 in the experiment with Hs-578T was > 100 µM (inactive).

In the case of `CC(=O)c1c(CO[N+](=O)[O-])[n+]([O-])c2ccccc2[n+]1[O-]`, in the experiment on Hs-578T, the GI50 was 41.1 µM (inactive).

With `COc1ccc(/N=N/c2c(C)c(C#N)c(=S)n(C3OC(COC(C)=O)C(OC(C)=O)C(OC(C)=O)C3OC(C)=O)c2C)cc1` (stereo not drawn), the GI50 in the experiment with Hs-578T is 23.3 µM (inactive).

Consider `COC(=O)[C@H](Cc1ccccc1)NC(=O)OCC1OC(n2cc(C)c(=O)[nH]c2=O)CC1N=[N+]=[N-]` (stereo partly drawn), for which the GI50 in the experiment on Hs-578T is 0.0617 µM (active).

On to `C[C@]12CC[C@H]3[C@@H](CCC4=CC(=O)CC[C@@]43C)[C@@H]1CC[C@@H]2OC(=O)c1cccc2c(=O)c3ccccc3[nH]c12`, for which the GI50 in the experiment with Hs-578T is 12.1 µM (inactive).

Consider `OCCN(CCO)c1ccc2c(c1)Cc1ccccc1-2`, for which, in the experiment with Hs-578T, the GI50 was 37.1 µM (inactive).

As to `COC(=O)CCC(=O)Nc1cc(Cl)ccc1Cl`, the GI50 in the experiment with XF498, with DMS-114, in the experiment on DLD-1, in the experiment on LXFL 529, in the experiment on HOP-18 and in the experiment with KM-20L2 was > 100 µM (inactive) in each case. For the same compound, the GI50 in the experiment with M19-MEL was > 100 µM (inactive).

In the case of `CC(=NNC(=S)Nc1cccc(C)c1)c1cccc(C(C)=NNC(=S)Nc2cccc(C)c2)n1`, the GI50 with Hs-578T was > 100 µM (inactive).

As to `CC1c2c(Cl)nc3ccccc3c2Oc2c1c(Cl)nc1ccccc21`, the GI50 with DMS-114 was 66.1 µM (inactive); in the experiment on DLD-1, > 100 µM (inactive); in the experiment with LXFL 529, 53.5 µM (inactive); with HOP-18 it was 7.21 µM (inactive); in the experiment on KM-20L2 it was > 100 µM (inactive); in the experiment on M19-MEL, > 100 µM (inactive).

Consider `O=C1CNCCCN2CCN(CCCNCC(=O)Nc3ccc(cc3)S(=O)(=O)c3ccc(cc3)NC(=O)CNCCCN3CCN(CCCNCC(=O)Nc4ccc(cc4)S(=O)(=O)c4ccc(cc4)N1)CC3)CC2`, for which the GI50 in the experiment with Hs-578T is > 45.4 µM (inactive).

Regarding `C[C@]12CC[C@H](OC3CCCCO3)CC1=CC[C@@H]1C2CC[C@]2(C)/C(=N/O)CCC12` (stereo partly drawn), the GI50 with XF498 is 40.6 µM (inactive); in the experiment with DMS-114 it was 17.5 µM (inactive); with DLD-1 it was 48.2 µM (inactive); with LXFL 529, 16.6 µM (inactive); in the experiment on HOP-18, 16 µM (inactive); in the experiment with KM-20L2, 12.6 µM (inactive).

Take `COc1cc2c(c(OC)c1OC)C(=O)[C@@H]1[C@H]2N1C(N)=O`: in the experiment on Hs-578T, the GI50 is 96.2 µM (inactive).

Regarding `COP1(=O)Oc2ccccc2C(=O)C(C(F)(F)F)(C(F)(F)F)O1` (stereo not drawn), the GI50 is 85.9 µM (inactive) in the experiment with XF498; > 100 µM (inactive) with DMS-114; > 100 µM (inactive) with DLD-1; > 100 µM (inactive) with LXFL 529; > 100 µM (inactive) with KM-20L2; > 100 µM (inactive) in the experiment with M19-MEL.

Consider `CC(=O)OC12c3ccccc3-c3ccccc3C1C(C(=O)O)C2(Cl)C(=O)O` (stereo not drawn), for which, in the experiment with Hs-578T, the GI50 is > 10 µM (inactive).

As to `O=C(OCc1ccccc1[N+](=O)[O-])N1c2ccccc2[C@@]23O[C@]24CCC[C@H]3C#C/C=C\C#C[C@H]14`, the GI50 in the experiment with Hs-578T is 66.5 µM (inactive).

As for `COc1cc(/C=C/C(=O)OCCc2ccccc2)ccc1O`, in the experiment on Hs-578T, the GI50 is 25.6 µM (inactive).

Take `Oc1ccc(C(O)C2CCCCN2)cc1O` (stereo not drawn) [RIMITEROL HYDROBROMIDE]: the GI50 in the experiment with Hs-578T was > 100 µM (inactive).
